Measured values: paper PMC10648349, “Aromatic Diboronic Acids as Effective KPC/AmpC Inhibitors” (Molecules, 2023)
In brackets after ≈: the same amount, converted by molar mass. Values belong to the molecule of their own block, whether it stands above or below them.

Experiments:
B. subtilis ATCC 6633 = assay: direct antimicrobial activity (disc-diffusion); format: cell-based; conditions: Bacillus subtilis, ATCC6633; 0.4 mg per disc, 9 mm disc (linezolid 0.03 mg, 6 mm disc); - no zone; read-out: Diameter of inhibition zone
Procedure: (§1) Direct antimicrobial activity against Gram-negative and Gram-positive bacterial strains, as well as against yeast, was examined as previously described by the disc-diffusion test, the MIC determination assay, the MBC (for bacteria), and the MFC (for yeasts) determination tests. All the above-mentioned tests were performed according to EUCAST [71, 72] and CLSI [73, 74, 75, 76, 77] recommendations. The following reference agents were used: nitrofurantoin (for Gram-negative rods), linezolid (for Gram-positive bacteria), and fluconazole (in the case of fungi). The new aromatic diboronic acids were dissolved in DMSO (Sigma, St. Louis, MO, USA). In the disc-diffusion test, the concentration of new agents was 0.4 mg per disc.

C. krusei ATCC 6258 = assay: antifungal activity (disc-diffusion, MIC, MFC); format: cell-based, Candida krusei; conditions: Pichia kudriavzevii, ATCC6258
In short: (§2)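 Susceptibility endpoints: inhibition zones (0.4 mg per disc), MIC, MBC for bacteria, MFC for yeasts. Compounds were solubilised in DMSO; nitrofurantoin, linezolid or fluconazole served as comparators per organism type.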

[1] = test system: Gram-negative rods (except P. aeruginosa); assay: direct antimicrobial activity, MIC; format: cell-based
Procedure: as §1

Gram-positive strains = assay: direct antimicrobial activity, MIC; format: cell-based
Procedure: as §1, with “disc. Depending on the solubility, the MIC and MBC/MFC values were determined up to 100 mg/L for 1k, up to 200 mg/L for 7c, and up to 400 mg/L for the remaining compounds: 1a–1j, 2a–2g, 3a–3f, 4a–4b, 5a–5c, 6a and 7a–7b.” for “disc.”

[2] = test system: S. aureus ATCC 43300 MRSA; assay: direct antimicrobial activity (disc-diffusion, MIC, MBC); format: cell-based; conditions: Staphylococcus aureus
In short: as §2

S. aureus ATCC 6538P = assay: as above; format: cell-based; conditions: Staphylococcus aureus, ATCC6538P
In short: as §2

E. faecalis ATCC 29212 = assay: as above; format: cell-based; conditions: Enterococcus faecalis, ATCC29212
In short: as §2

[3] = test system: S. epidermidis ATCC 12228; assay: as above; format: cell-based; conditions: Staphylococcus epidermidis, ATCC12228
In short: as §2

E. faecium ATCC 6057 = assay: as above; format: cell-based; conditions: Enterococcus faecium, ATCC6057
In short: as §2

[4] = test system: C. guilliermondii IBA 155; assay: antifungal activity (disc-diffusion, MIC, MFC); format: cell-based, Candida guilliermondii; conditions: Meyerozyma guilliermondii, IBA155
In short: as §2

[5] = test system: P. aeruginosa MUW 700 AmpC(+); assay: screening test of direct antimicrobial activity (STDA), disc-diffusion; format: cell-based; conditions: Pseudomonas aeruginosa; 0.3 mg per disc; - no zone; read-out: Diameter of inhibition zone around disc with tested agent
Procedure: (§3) Prior to combination disc tests, screening tests of direct antimicrobial activity (STDA) of the tested agent against β-lactamase-producing strains were performed by the disc-diffusion method. Discs with 0.3 mg, 0.1 mg, and 0.03 mg of each agent were examined. The highest amount of an agent that caused no effect on bacterial growth was used in further experiments.

[6] = test system: K. pneumoniae ATCC 700603 ESBL(+); assay: as above; format: cell-based; conditions: Klebsiella pneumoniae, ATCC700603; 0.3 mg per disc; - no zone; read-out: Diameter of inhibition zone around disc with tested agent
Procedure: as §3

C. albicans ATCC 90028 = assay: antifungal activity (disc-diffusion, MIC, MFC); format: cell-based; conditions: Candida albicans, ATCC90028
In short: as §2

C. tropicalis ATCC 750 = assay: antifungal activity (disc-diffusion, MIC, MFC); format: cell-based; conditions: Candida tropicalis, ATCC750
In short: as §2

S. cerevisiae ATCC 9763 = assay: antifungal activity (disc-diffusion, MIC, MFC); format: cell-based; conditions: Saccharomyces cerevisiae, ATCC9763
In short: as §2

C. tropicalis IBA 171 = assay: antifungal activity (disc-diffusion, MIC, MFC); format: cell-based; conditions: Candida tropicalis, IBA171
In short: as §2

[7] = test system: C. parapsilosis ATCC 22019; assay: antifungal activity (disc-diffusion, MIC, MFC); format: cell-based, Candida parapsilosis; conditions: Lodderomyces parapsilosis, ATCC22019
In short: as §2

[8] = MTT-based viability assay; format: cell-based; conditions: human, MRC-5 human fibroblasts, 72 h, read-out: Viability of MRC-5 cells (% of viable cells ± SD)
In short: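 MRC-5 human fibroblasts grown in MEME with 10% FBS at 37 °C, 5% CO2, tested by MTT with absorbance read at 570 nm. Viability given as percent of untreated control cells, in triplicate.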

CRE strains = conditions: cited from earlier work
[9] = test system: E. coli 76 KPC-2-positive; assay: checkerboard microdilution, antibiotic plus tested agent; format: cell-based, Escherichia coli; conditions: Escherichia coli; read-out: MIC of meropenem alone
Procedure: (§4) To examine the ability of tested agents to inhibit various carbapenemases and AmpC-enzymes, their synergy with antibiotics against β-lactamase-producing strains was assessed by checkerboard microdilution assay, with slight modification. Checkerboards were prepared in microtiter plates, with seven two-fold dilutions of β-lactams (1–64 mg/L) in the rows and three two-fold dilutions of tested agents and PBA (4–16 mg/L) in the columns. Tested agents’ concentrations were limited to the concentrations at which the newest commercially available BLIs (vaborbactam, relebactam, and avibactam) are used in susceptibility testing. Plates were inoculated and incubated as in the MIC microdilution assay. Parallel, MICs of tested agents and PBA alone were determined by the microdilution assay. Following the incubation, antibiotic MICs in the presence of each agent’s concentration were determined. Moreover, for the first well without growth found in each checkerboard row and column along the growth/non-growth interface, the fractional inhibitory concentration index (FICI) was calculated using the formula below:FICI = [(MIC of antibiotic in combination)/(MIC of antibiotic alone)] + [(MIC of the tested agent in combination)/(MIC of tested agent alone)].
(§5) For calculations, all off-scale MICs were converted to the next-highest doubling concentration. Subsequently, both the average and the lowest FICI were interpreted. The interpretation was as follows: FICI ≤ 0.5, synergy; 0.5 < FICI ≤ 4, indifference and FICI > 4, antagonism. Primarily, examined combinations consisted of meropenem (Pol-Aura, Morag, Poland) plus tested agents against carbapenemases-producing strains and ceftazidime (Pol-Aura, Morag, Poland) plus tested agents against AmpC-producing strains. For agents that reduced meropenem MIC at least 4-fold for at least two tested strains, similar assays were performed with imipenem (Pol-Aura, Morag, Poland) and ertapenem (Pol-Aura, Morag, Poland).

[10] = test system: E. coli 82 TR(pl 81), transformant carrying blaKPC-3; assay: whole cell assay, meropenem MIC with tested agent; format: cell-based, Escherichia coli; conditions: Escherichia coli, read-out: MIC of meropenem alone
Procedure: as §4

E. coli DH5α = assay: whole cell assay, meropenem MIC with tested agent; format: cell-based, Escherichia coli; conditions: Escherichia coli; read-out: MIC of meropenem alone
Procedure: as §4

[11] = test system: P. aeruginosa 1204 VIM(+); assay: checkerboard microdilution, antibiotic plus tested agent; format: cell-based; conditions: Pseudomonas aeruginosa; read-out: MIC of meropenem alone
Procedure: as §4
For calculations, all off-scale MICs were converted to the next-highest doubling concentration. […]

[12] = test system: K. pneumoniae ATCC BAA 1705 KPC-2-positive; assay: combination disc test CDT-KPC; format: cell-based; conditions: Klebsiella pneumoniae, BAA1705; meropenem 10 µg per disc, 6 mm disc; read-out: Diameter of inhibition zone, MEM-10 disc without agent
[13] = test system: K. pneumoniae 81 KPC-3-positive; assay: checkerboard microdilution, antibiotic plus tested agent; format: cell-based, Klebsiella pneumoniae; conditions: Klebsiella pneumoniae; read-out: MIC of meropenem alone
Procedure: as §4, §5

[14] = test system: K. pneumoniae 83 KPC-3-positive, CTX-M-3-positive; assay: as above; format: cell-based, Klebsiella pneumoniae; conditions: Klebsiella pneumoniae; read-out: MIC of meropenem alone
Procedure: as §4, §5

[15] = test system: K. pneumoniae ATCC BAA-1705 KPC-2-positive; assay: as above; format: cell-based, Klebsiella pneumoniae; conditions: Klebsiella pneumoniae, ATCCBAA1705; read-out: MIC of meropenem alone
Procedure: as §4, §5

[16] = 0.4 mg per disc, 9 mm disc (fluconazole 0.025 mg, 6 mm disc), - no zone, read-out: Diameter of inhibition zone
[17] = 0.4 mg per disc, 9 mm disc (linezolid 0.03 mg, 6 mm disc), - no zone, read-out: Diameter of inhibition zone

MIC (C. krusei ATCC 6258; fluconazole by Etest): 400 µg/mL (≈ 958 µM)
MIC [1]: 50 to 400 µg/mL (≈ 120 to 958 µM)
MIC (Gram-positive strains; enterococci): 100 to 400 µg/mL (≈ 239 to 958 µM)
MIC (Gram-positive strains; staphylococci): 12.5 to 50 µg/mL (≈ 29.9 to 120 µM)
MIC [2]: 50 µg/mL (≈ 120 µM)
MIC (S. aureus ATCC 6538P): 50 µg/mL (≈ 120 µM)
MIC (E. faecalis ATCC 29212): 400 µg/mL (≈ 958 µM)
MIC [3]: 50 µg/mL (≈ 120 µM)
MIC (E. faecium ATCC 6057): 400 µg/mL (≈ 958 µM)
MIC ([4]; fluconazole by Etest): 400 µg/mL (≈ 958 µM)
MIC (C. albicans ATCC 90028; fluconazole by Etest): 200 µg/mL (≈ 479 µM)
MIC (C. tropicalis ATCC 750; fluconazole by Etest): > 400 µg/mL
MIC (S. cerevisiae ATCC 9763; fluconazole by Etest): > 400 µg/mL
MIC (C. tropicalis IBA 171; fluconazole by Etest): > 400 µg/mL
MIC ([7]; fluconazole by Etest): > 400 µg/mL
SMILES: OB(O)c1cc(I)c(B(O)O)cc1I [1j]
zone of inhibition at 0.4 mg/disc (B. subtilis ATCC 6633): 20 mm
zone of inhibition at 0.4 mg/disc (C. krusei ATCC 6258; [16]): 23 mm
zone of inhibition at 0.4 mg/disc [2, 17]: 21 mm
zone of inhibition at 0.4 mg/disc (S. aureus ATCC 6538P; [17]): 19 mm
zone of inhibition at 0.4 mg/disc [3, 17]: 25 mm
zone of inhibition at 0.4 mg/disc [4, 16]: 30 mm
zone of inhibition at 300 µg/disc [5]: 14 mm
zone of inhibition at 300 µg/disc [6]: 11 mm
zone of inhibition at 0.4 mg/disc (C. albicans ATCC 90028; [16]): 24 mm
zone of inhibition at 0.4 mg/disc (C. tropicalis ATCC 750; [16]): 17 mm
zone of inhibition at 0.4 mg/disc (S. cerevisiae ATCC 9763; [16]): 20 mm
zone of inhibition at 0.4 mg/disc (C. tropicalis IBA 171; [16]): 15 mm
zone of inhibition at 0.4 mg/disc [7, 16]: 15 mm
viability at 72 h, 12.5 mg/L ([8]; 12.5 mg/L): 125 ± 2.8%
viability at 72 h, 25 mg/L ([8]; 25 mg/L): 117 ± 1.2%
viability at 72 h, 50 mg/L ([8]; 50 mg/L): 88.6 ± 3.5%

SMILES: O=C(O)c1c(F)ccc2c1OB(O)[C@@H]1C[C@H]21 [xeruborbactam]
MIC (CRE strains): 16 µg/mL (≈ 72.1 µM)

SMILES: C[C@@H](O)[C@H]1C(=O)N2C(C(=O)O)=C(S[C@@H]3CN[C@H](C(=O)N(C)C)C3)[C@H](C)[C@H]12 [MEM, meropenem, reference compound]
MIC [9]: 64 µg/mL
MIC [10]: 2 µg/mL
MIC (E. coli DH5α): 0.016 µg/mL
MIC [11]: 64 µg/mL
zone of inhibition at 10 µg/disc [12]: 6 mm
MIC [13]: 16 µg/mL
MIC [14]: 32 µg/mL
MIC [15]: 32 µg/mL
